US20030232851A1, “Viral treatment” (The Procter & Gamble Company, priority 1999, published 2003)

How the values were obtained:
HIV-1 cell line, CEMSKI = experiment: Long term in vitro study, CEMSKI, reverse transcriptase; assay type: cell-based; conditions: run through 242 days
Experimental: A microtiter-based reveres transcriptase (RT) reaction is utilized (Buckheit et al (1991) AIDS Research and Human Retroviruses 7:295-302). Tritiated thymidine triphosphate (NEN)(TTP) is resuspended in distilled water at 5 Ci/ml. Poly rA and oligo dT are prepared as a stock solution which is kept at −20° C. The RT reaction buffer is prepared fresh on a daily basis and consists of 125 μl 1M EGTA, 125 μl water, 125 μl Triton X-100, 50 μl Tris (pH 7.4), 50 μl 1 MDDT, and 40 μl 1M MgCl2. These three solutions are mixed together in a ratio of 1 part TTP, 2.5 parts poly rA:oligo dT, 2.5 parts reaction buffer and 4 parts distilled water. Ten microliters of this reaction mixture is placed in a round bottom microtiter place and 15 μl of virus containing supernatant is added and mixed. The plate is incubated at 37° C. for 60 minutes. […] Incorporated radioactivity is quantified utilizing a Wallac Microbeta scintillation counter. […]
The cell populations contain integrated copies of the HIV genome and constitutively produce HIV at relatively high levels or are latently infected and only produce virus after stimulation with phorbol esters, tumor necrosis factor or IL6 (U1 and ACH2). Reductions in virus products were observed when quantifying supernatant reverse transcriptase activity, […]

[1] = system: U937RF, a protease resistant strain; experiment: Long term in vitro study, U937RF, reverse transcriptase; assay type: cell-based, HIV
Experimental: (§1) A microtiter-based reveres transcriptase (RT) reaction is utilized (Buckheit et al (1991) AIDS Research and Human Retroviruses 7:295-302). Tritiated thymidine triphosphate (NEN)(TTP) is resuspended in distilled water at 5 Ci/ml. Poly rA and oligo dT are prepared as a stock solution which is kept at −20° C. The RT reaction buffer is prepared fresh on a daily basis and consists of 125 μl 1M EGTA, 125 μl water, 125 μl Triton X-100, 50 μl Tris (pH 7.4), 50 μl 1 MDDT, and 40 μl 1M MgCl2. These three solutions are mixed together in a ratio of 1 part TTP, 2.5 parts poly rA:oligo dT, 2.5 parts reaction buffer and 4 parts distilled water. Ten microliters of this reaction mixture is placed in a round bottom microtiter place and 15 μl of virus containing supernatant is added and mixed. The plate is incubated at 37° C. for 60 minutes. Following reaction, the reaction volume is spotted onto filter mats, washed 6 times for 5 minutes each in a 5% sodium phosphate buffer, 2 times for 1 minute each in distilled water, 2 times for 1 minute each in 70% ethanol, and then dried. The dried filter mat is placed in a plastic sample bag, Betaplate scintillation fluid is added and the bag is heat sealed. Incorporated radioactivity is quantified utilizing a Wallac Microbeta scintillation counter.
(§2) Acute infection of most established human cell lines with HIV-1 results in the eventual establishment of a constitutive virus-producing chronically infected cell line. The cells can be passaged for long periods of time in culture without loss of virus production. These cells may be utilized to evaluate the effects of anti-HIV compounds on syncytium formation or to evaluate the effects of anti-HIV compounds on levels of virus production from these cells. […] Each of the cells contains an integrated HIV genome or provirus. Chronically infected CEM, H9 and U937 cell lines have been prepared and cultured by Southern Research Institute, Frederick Md. and are available from them.
(§3) CEM-SS cells chronically infected with HIV isolate, for example SKI (CEM-SKI) are cultured in RPMI1640 tissue culture medium supplemented with 10% fetal bovine serum and antibiotics. […] CEM-SKI or other infected cells with no added drug are used as the control cells. Cells are allowed to grow to a density of approximately 1×10^6 cells/ml and are then passaged at a 1:10 dilution. […] The drug concentration in the flask is then increased two-fold and the cells maintained as above.
(§4) The cell populations contain integrated copies of the HIV genome and constitutively produce HIV at relatively high levels or are latently infected and only produce virus after stimulation with phorbol esters, tumor necrosis factor or IL6 (U1 and ACH2). Reductions in virus products were observed when quantifying supernatant reverse transcriptase activity,
A long term in vitro study of 2-(2-thienyl)-imidazolo [4,5-b]pyridine against U937RF, a protease resistant strain, was conducted at three different levels. The results with U937RF cells were reported at weekly intervals.

[2] = system: HIV-1 cell line, U937IIIB; experiment: Long term in vitro study, U937IIIB, reverse transcriptase; assay type: cell-based; set-up: reverse transcriptase data: unit not given here
Experimental: as §1, §2, §3, §4
A long term in vitro study of 2-(2-thienyl)-imidazolo [4,5-b]pyridine against an HIV-1 cell line, U9371IIIB was conducted at three different levels. The results with U937IIIB cells were reported at weekly intervals.

c1csc(-c2nc3cccnc3[nH]2)c1 [2-(2-thienyl)-imidazolo [4,5-b]pyridine]
reverse transcriptase data on continuation (in words) (HIV-1 cell line, CEMSKI): data remained consistent | reverse transcriptase data ([1]; 7 μg/ml, day 4): 9711 | reverse transcriptase data ([1]; 7 μg/ml, day 11): 9974 | reverse transcriptase data ([1]; 7 μg/ml, day 18): 7462 | reverse transcriptase data ([1]; 7 μg/ml, day 25): 6952 | reverse transcriptase data ([1]; 7 μg/ml, day 32): 9161 | reverse transcriptase data ([1]; 7 μg/ml, day 39): 11155 | reverse transcriptase data ([1]; 7 μg/ml, day 46): 5178 | reverse transcriptase data ([1]; 7 μg/ml, day 53): 5878 | reverse transcriptase data ([1]; 7 μg/ml, day 60): 7586 | reverse transcriptase data ([1]; 7 μg/ml, day 67): 6678 | reverse transcriptase data ([1]; 7 μg/ml, day 71): 7299 | reverse transcriptase data ([1]; 7 μg/ml, day 74): 5927 | reverse transcriptase data ([1]; 7 μg/ml, day 88): 6996 | reverse transcriptase data ([1]; 7 μg/ml, day 95): 5624 | reverse transcriptase data ([1]; 7 μg/ml, day 102): 6002 | reverse transcriptase data ([1]; 7 μg/ml, day 109): 13890 | reverse transcriptase data ([1]; 15 μg/ml, day 4): 6397 | reverse transcriptase data ([1]; 15 μg/ml, day 11): 8051 | reverse transcriptase data ([1]; 15 μg/ml, day 18): 7932 | reverse transcriptase data ([1]; 15 μg/ml, day 25): 5229 | reverse transcriptase data ([1]; 15 μg/ml, day 32): 7277 | reverse transcriptase data ([1]; 15 μg/ml, day 39): 12487 | reverse transcriptase data ([1]; 15 μg/ml, day 46): 4703 | reverse transcriptase data ([1]; 15 μg/ml, day 53): 4960 | reverse transcriptase data ([1]; 15 μg/ml, day 60): 7952 | reverse transcriptase data ([1]; 15 μg/ml, day 67): 6417 | reverse transcriptase data ([1]; 15 μg/ml, day 71): 7016 | reverse transcriptase data ([1]; 15 μg/ml, day 74): 5903 | reverse transcriptase data ([1]; 15 μg/ml, day 88): 5887 | reverse transcriptase data ([1]; 15 μg/ml, day 95): 4602 | reverse transcriptase data ([1]; 15 μg/ml, day 102): 5229 | reverse transcriptase data ([1]; 15 μg/ml, day 109): 5718 | reverse transcriptase data ([1]; 30 μg/ml, day 4): 4841 | reverse transcriptase data ([1]; 30 μg/ml, day 11): 5389 | reverse transcriptase data ([1]; 30 μg/ml, day 18): 6988 | reverse transcriptase data ([1]; 30 μg/ml, day 25): 6061 | reverse transcriptase data ([1]; 30 μg/ml, day 32): 7572 | reverse transcriptase data ([1]; 30 μg/ml, day 39): 8558 | reverse transcriptase data ([1]; 30 μg/ml, day 46): 3065 | reverse transcriptase data ([1]; 30 μg/ml, day 53): 3643 | reverse transcriptase data ([1]; 30 μg/ml, day 60): 3445 | reverse transcriptase data ([1]; 30 μg/ml, day 67): 4368 | reverse transcriptase data ([1]; 30 μg/ml, day 71): 1498 | reverse transcriptase data ([1]; 30 μg/ml, day 74): 3639 | reverse transcriptase data ([1]; 30 μg/ml, day 88): 2697 | reverse transcriptase data ([1]; 30 μg/ml, day 95): 2442 | reverse transcriptase data ([1]; 30 μg/ml, day 102): 2815 | reverse transcriptase data ([1]; 30 μg/ml, day 109): 2095 | reverse transcriptase data on continuation (in words) ([1]; run through 242 days): data remained consistent | reverse transcriptase data ([2]; 7 μg/ml, day 4): 2100 | reverse transcriptase data ([2]; 7 μg/ml, day 11): 2205 | reverse transcriptase data ([2]; 7 μg/ml, day 18): 2245 | reverse transcriptase data ([2]; 7 μg/ml, day 25): 2212 | reverse transcriptase data ([2]; 7 μg/ml, day 32): 2347 | reverse transcriptase data ([2]; 7 μg/ml, day 39): 2516 | reverse transcriptase data ([2]; 7 μg/ml, day 46): 1968 | reverse transcriptase data ([2]; 7 μg/ml, day 53): 1695 | reverse transcriptase data ([2]; 7 μg/ml, day 60): 2887 | reverse transcriptase data ([2]; 7 μg/ml, day 67): 4170 | reverse transcriptase data ([2]; 7 μg/ml, day 71): 7786 | reverse transcriptase data ([2]; 7 μg/ml, day 74): 6119 | reverse transcriptase data ([2]; 7 μg/ml, day 88): 6880 | reverse transcriptase data ([2]; 7 μg/ml, day 95): 5041 | reverse transcriptase data ([2]; 7 μg/ml, day 102): 5072 | reverse transcriptase data ([2]; 7 μg/ml, day 109): 7437 | reverse transcriptase data ([2]; 15 μg/ml, day 4): 1188 | reverse transcriptase data ([2]; 15 μg/ml, day 11): 713 | reverse transcriptase data ([2]; 15 μg/ml, day 18): 993 | reverse transcriptase data ([2]; 15 μg/ml, day 25): 1900 | reverse transcriptase data ([2]; 15 μg/ml, day 32): 2003 | reverse transcriptase data ([2]; 15 μg/ml, day 39): 1326 | reverse transcriptase data ([2]; 15 μg/ml, day 46): 987 | reverse transcriptase data ([2]; 15 μg/ml, day 53): 1221 | reverse transcriptase data ([2]; 15 μg/ml, day 60): 1205 | reverse transcriptase data ([2]; 15 μg/ml, day 67): 2314 | reverse transcriptase data ([2]; 15 μg/ml, day 71): 4265 | reverse transcriptase data ([2]; 15 μg/ml, day 74): 5689 | reverse transcriptase data ([2]; 15 μg/ml, day 88): 6832 | reverse transcriptase data ([2]; 15 μg/ml, day 95): 4988 | reverse transcriptase data ([2]; 15 μg/ml, day 102): 3912 | reverse transcriptase data ([2]; 15 μg/ml, day 109): 4294 | reverse transcriptase data ([2]; 30 μg/ml, day 4): 996 | reverse transcriptase data ([2]; 30 μg/ml, day 11): 180 | reverse transcriptase data ([2]; 30 μg/ml, day 18): 417 | reverse transcriptase data ([2]; 30 μg/ml, day 25): 588 | reverse transcriptase data ([2]; 30 μg/ml, day 32): 716 | reverse transcriptase data ([2]; 30 μg/ml, day 39): 625 | reverse transcriptase data ([2]; 30 μg/ml, day 46): 542 | reverse transcriptase data ([2]; 30 μg/ml, day 53): 208 | reverse transcriptase data ([2]; 30 μg/ml, day 60): 504 | reverse transcriptase data ([2]; 30 μg/ml, day 67): 782 | reverse transcriptase data ([2]; 30 μg/ml, day 71): 1414 | reverse transcriptase data ([2]; 30 μg/ml, day 74): 1059 | reverse transcriptase data ([2]; 30 μg/ml, day 88): 1811 | reverse transcriptase data ([2]; 30 μg/ml, day 95): 1988 | reverse transcriptase data ([2]; 30 μg/ml, day 102): 1695 | reverse transcriptase data ([2]; 30 μg/ml, day 109): 1542 | reverse transcriptase data on continuation (in words) ([2]; run through 242 days): data remained consistent
